# Test results from article PMC11264596, “Auxin-mediated regulation of susceptibility to toxic metabolites, c-di-GMP levels, and phage infection in the rhizobacterium Serratia plymuthica” (mSystems, 2024).
# Target: T1, TrpRA153 (AWY96_RS12805) (Serratia plymuthica, UniProt A0A2X4U763)
# T1 construct: gene trpR
# Experiment: isothermal titration calorimetry
# Assay type: binding
row,Structure (SMILES),Kd
1,"O=C(O)Cc1c[nH]c2ccccc12 [IAA, indole-3-acetic acid]",326 ± 30 µM
2,"O=C(O)C(=O)Cc1c[nH]c2ccccc12 [IPA, indole-3-pyruvic acid]",101 ± 7 µM
3,N[C@@H](Cc1c[nH]c2ccccc12)C(=O)O [L-Trp],91 ± 3 µM
